# Measured values: patent US8536307B2, “Anticalins” (Pieris AG, priority 1997, dated 2013)
# Legend:
# [1] = biological target: anticalin FluC, mutein of Pieris brassicae bilin-binding protein (Bbp): Asn34Ser, Ser35Lys, Val36Asn, Glu37Gly, Gly40Arg, Asn58Arg, His60Thr, Ile69Gln, Leu88Arg (Pieris brassicae, UniProt P09464, E52G/F142H/F83V/G55R/H75T/I84Q/K102S/K110R/K131R/K150M/L103R/N112G/N16D/N36Q/N49S/N73R/Q140L/S50K/V108K/V51N/Y105V/Y129R); conditions: fluorescence titration, excitation 280 nm, emission 340 nm, 1 μM anticalin, PBS with 1 mM EDTA, pH 7.4, 25° C.; [P]t additionally fitted as a free parameter
# UniProt P09464, sequence (P09464 other isoform, or with tags, fused parts or gaps with the stated changes): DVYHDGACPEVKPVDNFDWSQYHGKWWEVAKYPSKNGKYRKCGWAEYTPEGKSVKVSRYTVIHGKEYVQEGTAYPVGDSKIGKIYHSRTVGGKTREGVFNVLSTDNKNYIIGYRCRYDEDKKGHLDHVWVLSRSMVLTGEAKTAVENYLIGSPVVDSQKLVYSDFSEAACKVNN
# [2] = Fluorescence titration (decrease of intrinsic protein fluorescence) with ligand fluorescein; format: binding; conditions: measurement for comparison, fluorescein ligands
# Procedure: The ligand-binding characteristics of the anticalins, were then determined by fluorescence titration. Here, the decrease in the intrinsic tyrosine and tryptophan fluorescence of the protein upon complex formation with the ligand was measured. The measurements were made with a fluorescence photometer (MS III, Photon Technology International Inc.) at an excitation wavelength of 280 nm (slit width 5 nm) and emission wavelength of 340 nm (slit width 10 nm). Fluorescein, 4-amino-fluorescein as well as its conjugate with glutaric acid from Example 2 were used as ligands.
# PBS with addition of 1 mM EDTA, pH 7.4 (adjusted with NaOH) served as buffer system. […] For FluA and Bbp, the corrected calculated extinction coefficients in the presence of guanidinium chloride according to Gill and von Hippel (Anal. Biochem. 182 (1989), 319-326) of 59755 M^−1 cm^−1 (FluA) as well as 54150 M^−1 cm^−1 (Bbp) were used.
# For the measurement, 2 ml of the anticalin solution was applied in a quartz cuvette equipped with a stirring bar and thermostatted at 25° C. in the sample holder of the photometer. […] After every titration step the sample was incubated for 1 minute with stirring for equilibration, and the fluorescence signal was measured as an average value over 10 s. […]
# [formula] Here, F is the normalized fluorescence intensity and [P]t the concentration of the anticalin. […]
# [3] = biological target: biotinylated synthetic hepatitis C-peptide epitope, peptide fragment no. 59 from the surface protein NS4 of HCV (SEQ ID NO:13) (Hepatitis C virus genotype 1a, UniProt P27958); assay: Sandwich-ELISA for detection of hepatitis C peptide epitope; conditions: ranking of signal strength
# Procedure: For the ELISA, the wells in a microtiter plate (ELISA-STRIP, 2×8 wells, KO, F-form, high binding capacity, Greiner) were each filled with 200 μl of a solution of 20 mg/ml HSA in 50 mM NaHCO3 pH 9.6 and were incubated for 1 hour at RT. After removal of the solution, the unoccupied binding sites were saturated with 200 μl 3% w/v BSA in PBS with 0.5% v/v Tween 20 for 1 hour. After washing three times with PBST, 50 μl of the undiluted periplasmic protein extract were filled into the respective first well of a row. 50 μl PBS were first placed into each of the subsequent wells of each row. 50 μl of the periplasmic protein extract were then pipetted into the respective second well, were mixed, and, starting from this, 1:2 dilutions in the subsequent wells were prepared in a stepwise manner. The periplasmic protein extract with the Bbp, which was made using pBBP22 as expression plasmid, served as a control.
# After 1 hour incubation at RT washing followed three times with PBST, followed by pipetting of 200 μl of the ligand solution (SEQ ID NO:13, 1 μM in PBST) into each well. […] To this end, 100 μl of a solution of 0.5 mg/ma p-nitrophenylphosphate (Amresco) in AP-buffer were placed in each well and product formation was measured by absorption at 405 nm in a SpectraMax 250 photometer (Molecular Devices) as dA/dt number.
molecule,measurement,setting,value
"O=C1OC2(c3ccc(O)cc3Oc3cc(O)ccc32)c2ccccc21 [Fluorescein, fluorescein]",Dissociation constant (Kd),[1],411 ± 20 nM
"O=C(O)CCCC(=O)Nc1ccc2c(c1)C(=O)OC21c2ccc(O)cc2Oc2cc(O)ccc21 [4-Glutarylamidofluorescein, 4-glutarylamido-fluorescein]",Dissociation constant (Kd),[1],78 ± 3 nM
"Nc1ccc2c(c1)C(=O)OC21c2ccc(O)cc2Oc2cc(O)ccc21 [4-Aminofluorescein, 4-amino-fluorescein]",Dissociation constant (Kd),[1],299 ± 41 nM
"Bbp: Recombinant bilin-binding protein from Pieris brassicae (modified, encoded on pBBP21/pBBP22), produced as a control (protein, left off: small tags and cut ends) DVYHDGACPEVKPVDNFDWSQYHGKWWEVAKYPNSVEKYGKCGWAEYTPEGKSVKVSNYHVIHGKEYFIEGTAYPVGDSKIGKIYHSLTYGGVTKENVFNVLSTDNKNYIIGYYCKYDEDKKGHQDFVWVLSRSMVLTGEAKTAVENYLIGSPVVDSQKLVYSDFSEAACKVNNLAEAKVLANRELDKYGVSDYYKNLINNAKTVEGVKALIDEILAALP",binding effect in fluorescence titration (dissociation constant),[2],so weak that a dissociation constant could not be determined
"HepC1: Anticalin (Bbp mutein) binding hepatitis C peptide epitope, produced as fusion with Strep-Tag II and albumin-binding domain (protein, left off: small tags and cut ends) DVYHDGACPEVKPVDNFDWSQYHGKWWEVAKYPKTKQKYEKCGWAEYTPEGKSVKVSLYHVIHGKEYFFEGTAYPVGDSKIGKIYHSVTAGGFTSEQVFSVLSTDNKNYIIGYACYYDEDKKGHVDFVWVLSRSMVLTGEAKTAVENYLIGSPVVDSQKLVYSDFSEAACKVNNLAEAKVLANRELDKYGVSDYYKNLINNAKTVEGVKALIDEILAALP",sandwich-ELISA signal in comparison between anticalins,[3],strongest
"HepC4: Anticalin (Bbp mutein) binding hepatitis C peptide epitope, produced as fusion with Strep-Tag II and albumin-binding domain (protein, left off: small tags and cut ends) DVYHDGACPEVKPVDNFDWSQYHGKWWEVAKYPQAPGKYGKCGWAEYTPEGKSVKVSPYNVIHGKEYFAEGTAYPVGDSKIGKIYHSWTGGGLTAEWVFNVLSTDNKNYIIGYPCRYDEDKKGHLDPVWVLSRSMVLTGEAKTAVENYLIGSPVVDSQKLVYSDFSEAACKVNNLAEAKVLANRELDKYGVSDYYKNLINNAKTVEGVKALIDEILAALP",sandwich-ELISA signal in comparison between anticalins,[3],followed by HepC4
